Laboratory results: patent US20240376084A1, “INHIBITORS OF ALPHA-HEMOLYSIN OF STAPHYLOCOCCUS AUREUS” (Helmholtz-Zentrum Fur Infektionsforschung GmbH, priority 2021, published 2024)

Experiments:
[1] = molecular target: hemolysin alpha from Staphylococcus aureus (Staphylococcus aureus, UniProt P09616); assay: cell-based
[2] = molecular target: S. aureus Alpha hemolysin (Staphylococcus aureus, UniProt P09616); assay: cell-based
Sequence of S. aureus Alpha hemolysin (P09616 27-319 limits assumed): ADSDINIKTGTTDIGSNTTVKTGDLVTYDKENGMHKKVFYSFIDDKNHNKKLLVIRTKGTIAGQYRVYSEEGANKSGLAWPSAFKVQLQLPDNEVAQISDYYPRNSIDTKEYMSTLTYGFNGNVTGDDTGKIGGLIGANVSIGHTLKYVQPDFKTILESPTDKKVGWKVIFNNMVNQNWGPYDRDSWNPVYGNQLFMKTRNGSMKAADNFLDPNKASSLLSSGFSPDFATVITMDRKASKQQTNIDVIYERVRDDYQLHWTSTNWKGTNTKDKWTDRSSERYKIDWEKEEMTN

Sequence of hemolysin alpha from Staphylococcus aureus (P09616 27-319 limits assumed): as above

Structure (SMILES) | EC50 [1] [nM] | EC50 ([2]; A549-LDH Assay activity) [nM] | IC50 [1] [nM] | EC50 ([2]; LDH Assay EC50) [nM]
Cc1cc2[nH]c(=O)c(=O)[nH]c2cc1S(=O)(=O)Nc1ccc(C2CCCCC2)c(Cl)c1 [Compound 284, N-(3-chloro-4-cyclohexyl-phenyl)-7-methyl-2,3-dioxo-1,4-dihydroquinoxaline-6-sulfonamide] | 30 to 100 | 100 to 1000 | – | –
Cc1ccc(-c2ccc(NS(=O)(=O)c3cc4[nH]c(=O)c(=O)[nH]c4cc3C)cc2Cl)cc1Cl [Compound 286, N-[3-chloro-4-(3-chloro-4-methyl-phenyl)phenyl]-7-methyl-2,3-dioxo-1,4-dihydroquinoxaline-6-sulfonamide] | 30 to 100 | 100 to 1000 | – | –
Cc1cc2[nH]c(=O)c(=O)[nH]c2cc1S(=O)(=O)Nc1ccc(-c2sccc2C)c(Cl)c1 [Compound 62, N-(3-chloro-4-(3-methylthiophen-2-yl)phenyl)-7-methyl-2,3-dioxo-1,2,3,4-tetrahydroquinoxaline-6-sulfonamide] | – | 100 to 1000 | 30 to 100 | –
Cc1cc2[nH]c(=O)c(=O)[nH]c2cc1S(=O)(=O)Nc1ccc(-c2ccc3cc[nH]c3c2)c(Cl)c1 [Compound 271, N-[3-chloro-4-(1H-indol-6-yl)phenyl]-7-methyl-2,3-dioxo-1,4-dihydroquinoxaline-6-sulfonamide] | < 30 | < 30 | – | –
Cc1cc2[nH]c(=O)c(=O)[nH]c2cc1S(=O)(=O)Nc1ccc(-c2ccc(C#N)nc2)c(Cl)c1 [Compound 254, N-[3-chloro-4-(6-cyano-3-pyridyl)phenyl]-7-methyl-2,3-dioxo-1,4-dihydroquinoxaline-6-sulfonamide] | 100 to 1000 | 100 to 1000 | – | –
Cc1ccc(-c2ccc(NS(=O)(=O)c3cc4[nH]c(=O)c(=O)[nH]c4cc3C)cc2Cl)s1 [Compound 52, N-(3-chloro-4-(5-methylthiophen-2-yl)phenyl)-7-methyl-2,3-dioxo-1,2,3,4-tetrahydroquinoxaline-6-sulfonamide] | – | 100 to 1000 | 30 to 100 | –
Cc1cc2[nH]c(=O)c(=O)[nH]c2cc1S(=O)(=O)Nc1ccc(C(F)(F)F)cc1 [Compound 50, 7-methyl-2,3-dioxo-N-(4-(trifluoromethyl)phenyl)-1,2,3,4-tetrahydroquinoxaline-6-sulfonamide] | – | 30 to 100 | 30 to 100 | –
Cc1cc2[nH]c(=O)c(=O)[nH]c2cc1S(=O)(=O)Nc1ccc(-c2c(F)cccc2F)c(Cl)c1 [Compound 308, N-[3-chloro-4-(2,6-difluorophenyl)phenyl]-7-methyl-2,3-dioxo-1,4-dihydroquinoxaline-6-sulfonamide] | 30 to 100 | 30 to 100 | – | –
Cc1cc2[nH]c(=O)c(=O)[nH]c2cc1S(=O)(=O)Nc1cc(C)c(-c2sccc2C)c(C)c1 [Compound 132, N-(3,5-dimethyl-4-(3-methylthiophen-2-yl)phenyl)-7-methyl-2,3-dioxo-1,2,3,4-tetrahydroquinoxaline-6-sulfonamide] | – | 100 to 1000 | 100 to 1000 | –
[2H]C([2H])([2H])Oc1ccc(-c2ccc(NS(=O)(=O)c3cc4[nH]c(=O)c(=O)[nH]c4cc3C)cc2Cl)cc1 [Compound 267, N-[3-chloro-4-[4-(trideuteriomethoxy)phenyl]phenyl]-7-methyl-2,3-dioxo-1,4-dihydroquinoxaline-6-sulfonamide] | < 30 | 30 to 100 | – | –
Cc1cc(NS(=O)(=O)c2ccc3[nH]c(=O)c(=O)[nH]c3c2)ccc1Br [drawing 471 (R^2 = H), reference compound] | 1690 | – | – | 346
Cc1cc2[nH]c(=O)c(=O)[nH]c2cc1S(=O)(=O)Nc1ccc(-c2ccc3[nH]ncc3c2)c(Cl)c1 [Compound 273, N-[3-chloro-4-(1H-indazol-5-yl)phenyl]-7-methyl-2,3-dioxo-1,4-dihydroquinoxaline-6-sulfonamide] | 30 to 100 | 100 to 1000 | – | –
Cc1cc2[nH]c(=O)c(=O)[nH]c2cc1S(=O)(=O)Nc1ccc(-c2ccc(C#N)cc2)c(Br)c1 [Compound 298, N-[3-bromo-4-(4-cyanophenyl)phenyl]-7-methyl-2,3-dioxo-1,4-dihydroquinoxaline-6-sulfonamide] | < 30 | 30 to 100 | – | –
O=c1[nH]c2cc(Cl)c(S(=O)(=O)Nc3ccc(-c4ccc(F)c(Cl)c4F)c(Cl)c3)cc2[nH]c1=O [Compound 105, 7-chloro-N-(2,3′-dichloro-2′,4′-difluoro-[1,1′-biphenyl]-4-yl)-2,3-dioxo-1,2,3,4-tetrahydroquinoxaline-6-sulfonamide] | – | 100 to 1000 | 100 to 1000 | –
Cc1cc2[nH]c(=O)c(=O)[nH]c2cc1S(=O)(=O)Nc1ccc(-c2cccs2)c(Cl)c1 [Compound 24, N-(3-chloro-4-(thiophen-2-yl)phenyl)-7-methyl-2,3-dioxo-1,2,3,4-tetrahydroquinoxaline-6-sulfonamide] | – | 30 to 100 | < 30 | –
O=c1[nH]c2cc(OC(F)(F)F)c(S(=O)(=O)Nc3ccc(-c4ccc(F)cc4)c(Cl)c3)cc2[nH]c1=O [Compound 197, N-(2-chloro-4′-fluoro-[1,1′-biphenyl]-4-yl)-2,3-dioxo-7-(trifluoromethoxy)-1,2,3,4-tetrahydroquinoxaline-6-sulfonamide] | 1000 to 3500 | 1000 to 6000 | – | –

Structure (SMILES) | EC50 [1] [nM] | EC50 ([2]; A549-LDH Assay activity) [nM] | IC50 [1] [nM] | EC50 ([2]; LDH Assay EC50) [nM]
C#Cc1cc(NS(=O)(=O)c2cc3[nH]c(=O)c(=O)[nH]c3cc2C)ccc1-c1ccc2cc[nH]c2c1 [Compound 301, N-[3-ethynyl-4-(1H-indol-6-yl)phenyl]-7-methyl-2,3-dioxo-1,4-dihydroquinoxaline-6-sulfonamide] | < 30 | < 30 | – | –
Cc1ccc(-c2c(C)cc(NS(=O)(=O)c3cc4[nH]c(=O)c(=O)[nH]c4cc3C)cc2C)o1 [Compound 84, N-(3,5-dimethyl-4-(5-methylfuran-2-yl)phenyl)-7-methyl-2,3-dioxo-1,2,3,4-tetrahydroquinoxaline-6-sulfonamide] | – | 100 to 1000 | 100 to 1000 | –
Cc1cccc(-c2c(C)cc(NS(=O)(=O)c3cc4[nH]c(=O)c(=O)[nH]c4cc3C)cc2C)c1 [Compound 175, 7-methyl-2,3-dioxo-N-(2,3′,6-trimethyl-[1,1′-biphenyl]-4-yl)-1,2,3,4-tetrahydroquinoxaline-6-sulfonamide] | – | 100 to 1000 | 100 to 1000 | –
Cc1cc2[nH]c(=O)c(=O)[nH]c2cc1S(=O)(=O)Nc1ccc(-c2ccccc2N(C)C)c(Cl)c1 [Compound 136, N-(2-chloro-2′-(dimethylamino)-[1,1′-biphenyl]-4-yl)-7-methyl-2,3-dioxo-1,2,3,4-tetrahydroquinoxaline-6-sulfonamide] | – | 100 to 1000 | 100 to 1000 | –
Cc1cc2[nH]c(=O)c(=O)[nH]c2cc1S(=O)(=O)Nc1ccc(C2CC2)cc1 [Compound 53, N-(4-cyclopropylphenyl)-7-methyl-2,3-dioxo-1,2,3,4-tetrahydroquinoxaline-6-sulfonamide] | – | < 30 | 30 to 100 | –
Cc1cc2[nH]c(=O)c(=O)[nH]c2cc1S(=O)(=O)Nc1ccc(-c2cc[nH]c(=O)c2)c(Cl)c1 [Compound 280, N-[3-chloro-4-(2-oxo-1H-pyridin-4-yl)phenyl]-7-methyl-2,3-dioxo-1,4-dihydroquinoxaline-6-sulfonamide] | 1000 to 3500 | 100 to 1000 | – | –
Cc1cc2[nH]c(=O)c(=O)[nH]c2c(F)c1S(=O)(=O)Nc1ccc(Br)c(Cl)c1 [Compound 63, N-(4-bromo-3-chlorophenyl)-5-fluoro-7-methyl-2,3-dioxo-1,2,3,4-tetrahydroquinoxaline-6-sulfonamide] | – | 1000 to 6000 | 30 to 100 | –
Cc1cc2[nH]c(=O)c(=O)[nH]c2cc1S(=O)(=O)Nc1cc(C)c(-c2ccccc2)c(C)c1 [Compound 73, N-(2,6-dimethyl-[1,1′-biphenyl]-4-yl)-7-methyl-2,3-dioxo-1,2,3,4-tetrahydroquinoxaline-6-sulfonamide] | – | 100 to 1000 | 100 to 1000 | –
Cc1cc2[nH]c(=O)c(=O)[nH]c2cc1S(=O)(=O)Nc1ccc(-c2ccc(C(F)(F)F)nc2)c(Cl)c1 [Compound 275, N-[3-chloro-4-[6-(trifluoromethyl)-3-pyridyl]phenyl]-7-methyl-2,3-dioxo-1,4-dihydroquinoxaline-6-sulfonamide] | 100 to 1000 | 1000 to 6000 | – | –
CC(=O)c1ccccc1-c1ccc(NS(=O)(=O)c2cc3[nH]c(=O)c(=O)[nH]c3cc2C)cc1 [Compound 123, N-(2′-acetyl-[1,1′-biphenyl]-4-yl)-7-methyl-2,3-dioxo-1,2,3,4-tetrahydroquinoxaline-6-sulfonamide] | – | 1000 to 6000 | 100 to 1000 | –
O=c1[nH]c2cc(C(F)F)c(S(=O)(=O)Nc3ccc(OC(F)(F)F)cc3)cc2[nH]c1=O [Compound 218, 7-(difluoromethyl)-2,3-dioxo-N-(4-(trifluoromethoxy)phenyl)-1,2,3,4-tetrahydroquinoxaline-6-sulfonamide] | 100 to 1000 | 100 to 1000 | – | –
Cc1cc2[nH]c(=O)c(=O)[nH]c2cc1S(=O)(=O)Nc1ccc(Cc2ccccc2)c(Cl)c1 [Compound 321, N-(4-benzyl-3-chloro-phenyl)-7-methyl-2,3-dioxo-1,4-dihydroquinoxaline-6-sulfonamide] | 100 to 1000 | 100 to 1000 | – | –
Cc1ccccc1-c1ccc(NS(=O)(=O)c2cc3[nH]c(=O)c(=O)[nH]c3cc2C)cc1 [Compound 89, 7-methyl-N-(2′-methyl-[1,1′-biphenyl]-4-yl)-2,3-dioxo-1,2,3,4-tetrahydroquinoxaline-6-sulfonamide] | – | 100 to 1000 | 100 to 1000 | –
Cc1cc2[nH]c(=O)c(=O)[nH]c2cc1S(=O)(=O)Nc1ccc(-n2ccnn2)c(Cl)c1 [Compound 264, N-[3-chloro-4-(triazol-1-yl)phenyl]-7-methyl-2,3-dioxo-1,4-dihydroquinoxaline-6-sulfonamide] | 100 to 1000 | 100 to 1000 | – | –
CC(C)c1ccc(NS(=O)(=O)c2cc3[nH]c(=O)c(=O)[nH]c3cc2F)cc1 [Compound 101, 7-fluoro-N-(4-isopropylphenyl)-2,3-dioxo-1,2,3,4-tetrahydroquinoxaline-6-sulfonamide] | – | 100 to 1000 | 100 to 1000 | –
